Literature values in paper PMC7527728, “CPSF6-Dependent Targeting of Speckle-Associated Domains Distinguishes Primate from Nonprimate Lentiviral Integration” (mBio, 2020).

Assays:
HIV-1 capsid hexamers = test system: HIV-1 capsid hexamers; design: method as in PMID 25518861; conditions: more efficiently than the NTD
A77V capsid nanotubes = conditions: in vitro, as efficiently as WT capsid
Text: (§1) The 5.2% reduction in genic HIV-1 integration targeting in Jurkat CKD cells was noticeably less than the 22.1% reduction in CKO cells (compare Fig. 4A and Fig. 3A). While the reason for this difference is unclear, it seemed possible that the residual level of CPSF6 protein that persisted in CKD cells (Fig. 2D) could be a contributing factor. We accordingly next mapped integration sites of N74D and A77V capsid mutant viruses in Jurkat T cells. N74D and A77V capsid nanotubes bound CPSF6 ∼5% and 30%, respectively, as efficiently as WT capsid complexes in vitro ([43]).

N74D capsid nanotubes = conditions: in vitro
Text: as §1

Row | Substance | binding to capsid hexamers relative to NTD (HIV-1 capsid hexamers) | CPSF6 binding relative to WT capsid complexes (A77V capsid nanotubes) | CPSF6 binding relative to WT capsid complexes (N74D capsid nanotubes)
1 | CPSF6 peptide: CPSF6 peptide binding HIV-1 capsid hexamers, ref 45 | approximately 10 -fold |  | 
2 | CPSF6: cleavage and polyadenylation specificity factor 6 |  | ~30% | ~5%
